Tests used:
[1] = system: HeLa cells; assay: In vitro transfection of plasmid pXL3031 (luciferase expression) in the presence and absence of serum; type: cell-based; conditions: 48 hours after transfection
Method: The plasmid used The DNA used is the plasmid pXL3031 (see FIG. 7) as a solution in a mixture of 5% dextrose and 10 mM sodium chloride at a concentration of 0.5 mg/ml or 1.0 mg/ml. This plasmid contains the luc gene encoding luciferase under the control of the cytomegalovirus P/E CMV promoter. Its size is 3671 bp. The plasmid pXL3031 was purified according to the methods described in patent application WO 97/35002.
The nucleic acid solutions are diluted to 20 μg/ml in physiological saline (0.15 M sodium chloride).
The oligobenzimidazole derivative (2) according to the invention is dissolved in water to a concentration ranging from 40 to 160 μmol and mixed, volume for volume, with the DNA solution. The final saline concentration is 75 mmol.
HeLa cells are cultured under suitable conditions on 24-well microplates (2 cm^2/well) and are transfected while they are in the exponential growth phase and at 50-70% of confluence.
The cells are washed with twice 0.5 cm^3 of medium free of seric proteins and are regrown either in serum-free medium (transfection in the absence of serum) or in whole medium (transfection in the presence of serum). 0.05 cm^3 of cytofecting mixture (0.5 μg of DNA/well) are added to the cells (3 wells/DNA-vector condition). When the cells are transfected in the absence of serum, the growth medium is supplemented, 2 hours after the transfection, with a suitable amount of serum.
The transfecting efficacy is evaluated 48 hours after transfection by measuring the expression of luciferase according to the recommendations given for using the Promega kit (“Luciferase Assay System”). The toxicity of the cytofecting mixtures is estimated by measuring the protein concentrations in cell lysates.
The in vitro luciferase activity results relative to the proteins expressed in RLU/5 μl/10 s/μg of protein (written more simply as RLU/μg of protein, “RLU” meaning “relative light unit”) are given in the table below: […]

[2] = system: DNA plasmid; assay: Agarose gel electrophoresis of DNA plasmid complexed with derivative or cationic lipid; type: binding; conditions: increasing amounts per μg of DNA; revealed with ethidium bromide
Method: For this, an agarose gel of a DNA plasmid mixed with increasing amounts of derivative (1) or (2) according to the invention was prepared (see FIG. 4). […] Two bands could thus be observed by virtue of the specific spectral absorption properties of the derivatives according to the present invention:
It is observed that the DNA migrates in an identical manner to the naked DNA, irrespective of the concentration of derivative 20 according to the invention.

[3] = system: mouse muscles; assay: In vivo intramuscular transfection of plasmid pXL3031 (luciferase expression) with or without electrotransfer; set-up: species or system C57B16 mice; conditions: 4 μg of DNA/muscle, 7 days
Method: The plasmid used is the same as the one described above for Example 5 (pXL3031). Similarly, the cytofecting solutions are prepared in the same way as in Example 5.
25 μl of solutions of derivative (1)/DNA complexes are injected intramuscularly to C57B16 mice, at a rate of 4 μg of DNA/mouse muscle.
The transfection efficacy is evaluated 7 days 5 after transfection by measuring the expression of luciferase according to the recommendations given for using the Promega kit (Luciferase Assay System). The muscles are ground in 1.5 ml of lysis buffer (with protease inhibitors). After assaying the luciferase activity on 10 μl, the results are expressed as RLU/10 μl/10 sec.
The in vivo luciferase activity results in mouse muscles, expressed in RLU/10 μl/10 sec, are collated in the table below: […]

SMILES | in vitro luciferase activity ([1]; 4 nmol/μg of DNA, + serum) | in vitro luciferase activity ([1]; 4 nmol/μg of DNA, absence of serum) | in vitro luciferase activity ([1]; 8 nmol/μg of DNA, + serum) | in vitro luciferase activity ([1]; 8 nmol/μg of DNA, absence of serum) | in vitro luciferase activity ([1]; 10 nmol/μg of DNA, + serum) | in vitro luciferase activity ([1]; 10 nmol/μg of DNA, absence of serum) | electrophoretic mobility of complexes with DNA on agarose gel [2] | in vivo luciferase activity in mouse muscles ([3]; 0.2 nmol/μg of DNA, with electrotransfer) | in vivo luciferase activity in mouse muscles ([3]; 0.2 nmol/μg of DNA, without electrotransfer) | in vivo luciferase activity in mouse muscles ([3]; 0.5 nmol/μg of DNA, with electrotransfer) | in vivo luciferase activity in mouse muscles ([3]; 0.5 nmol/μg of DNA, without electrotransfer) | in vivo luciferase activity in mouse muscles ([3]; 1 nmol/μg of DNA, with electrotransfer) | in vivo luciferase activity in mouse muscles ([3]; 1 nmol/μg of DNA, without electrotransfer)
CCCCCCCCCCCCNC(=O)Oc1ccc(-c2nc3ccc(-c4nc5ccc(N6CCN(C)CC6)cc5[nH]4)cc3[nH]2)cc1 [Derivative (2), 4-[6-(4-methyl-1-piperazinyl)-1H,3′H-[2,5′]bisbenzimidazol-2′-yl]-1-dodecylcarbamoyloxy phenyl] | 9.8 E+02 RLU/μg of protein | 1.3 E+03 RLU/μg of protein | 4.6 E+02 RLU/μg of protein | 1.7 E+03 RLU/μg of protein | 1.1 E+02 RLU/μg of protein | 1.7 E+03 RLU/μg of protein | same electrophoretic mobility properties as the naked DNA | – | – | – | – | – | –
CCCCCCCCCCCCCCN(CCCCCCCCCCCCCC)C(=O)CNC(=O)CNCCN(CCN)CCN [cationic lipid, reference compound] | – | – | – | – | – | – | varies with the amount of cationic lipid present with the DNA | – | – | – | – | – | –
CCCCCCCCCCCCCCCCCCNC(=O)Oc1ccc(-c2nc3ccc(-c4nc5ccc(N6CCN(C)CC6)cc5[nH]4)cc3[nH]2)cc1 [Derivative (1), 4-[6-(4-methyl-1-piperazinyl)-1H,3′H-[2,5′]bisbenzimidazol-2′-yl]-1-octadecylcarbamoyloxy phenyl] | – | – | – | – | – | – | same electrophoretic mobility properties as the naked DNA | 1.14 E+07 RLU/10 μl/10 sec | 3.45 E+04 RLU/10 μl/10 sec | 2.19 E+07 RLU/10 μl/10 sec | 1.67 E+04 RLU/10 μl/10 sec | 1.82 E+07 RLU/10 μl/10 sec | 1.06 E+04 RLU/10 μl/10 sec

— patent US20030105048A1, “Oligobenzimidazole derivatives and their use as DNA transfecting agents” (priority 1999, published 2003)
